# Patent publication US8529872B2, “Seeds and markers for use in imaging” (Board of Regents, The University of Texas System, priority 2007, dated 2013)
# Read-outs that look alike come from different tables or passages of the source.
# Assays:
# [1] = Octanol-water partition coefficient; format: physicochemical
# Method: […] The resulting biphasic solution was shaken vigorously for two hours at which point 400 μL of the octanol layer and 400 μL of the water layer were removed. The solvent from each sample was removed under reduced pressure and the mass of the compound in the octanol sample was divided by the mass of the compound in the water sample. This experiment was repeated in triplicate, and the results were averaged to give the Log (Poct/wat) values. All complexes were completely soluble in the mixture of octanol and water.
# [2] = pH of aqua solution of contrast agent; format: physicochemical
# Method: For preparation of aqua solution of contrast agent, the as-synthesized cobalt/glycine crystallites were dissolved in distillated water (0.3-10 wt %) and stirred at the room temperature with a magnetic stir bar for 1 h and then sonicated for 30 min.
# The value of pH varied from 2.6 to 6.5.
# [3] = Viscosity of contrast agent solution (Brookfield viscometer); format: physicochemical; conditions: room temperature
# Method: Viscosity of contrast agent solution was measured at room temperature by using Brookfield digital viscometer DV-II.
# [4] = Surface tension of contrast agents (Fisher 21 tensiometer); format: physicochemical
# Description: The Fisher 21 tensiometer was used to measure surface tension of contrast agents with accuracy t within +/−0.25%.
# [5] = Magnetic properties of contrast agent solutions by VSM; format: physicochemical
# Method: The magnetic properties of contrast agent solutions were determined by VSM (Vibrating Sample Magnetometer) at room temperature and magnetic field up to 1.5 T.
# FIG. 20a-20d show the magnetic properties of various aqua solutions of Co/glycine with concentration 1, 3, 5, 8 and 10%.
# [6] = MR relaxation measurements of C4 complex at 1.5 T; format: physicochemical; conditions: for T1 (ms) μ / T2 (ms) μ: 1.5T, 23° C.
# Method: (§1) MR imaging measurements were performed on a 1.5 T clinical scanner (Excite HD, GEHT, Waukesha, Wis.) to characterize the relaxation properties of the new cobalt complex after each new modification of the C4 chemistry was made. Several iterations were performed before obtaining a stable sample. Additional measurements at 3.0 T (Excite HD, GEHT, Waukesha, Wis.) were made once the design of the C4 complex was stable. Each session or iteration (n=5) took approximately 2 hours to collect all the relaxation data.
# […] Theses solutions were placed in a water bath and imaged at room temperature (23° C.). Experiments were performed to ascertain the spin-lattice relaxivity (R1), spin-spin relaxivity (R2) and true spin-spin relaxivity (R2*) at 1.5 T and 3 T using a volume knee coil to excite and receive the MR signal.
# (§2) R1 measurements were performed using a spin-echo inversion recovery (SE-IR) sequence with parameters: Inversion Time (TI)={0.05, 0.1, 0.2, 0.3, 0.4, 0.5, 0.6, 0.7, 0.8, 0.9, 1.0, 1.2, 1.4, 1.6, 1.8, 2.0} sec, Pulse Repetition Time (TR)=5000, Time to Echo (TE)=10 ms, slice thickness=3 mm, acquisition matrix=256 (frequency)×128 (phase), receiver bandwidth (rBW)=±15 kHz and the number of excitations (NEX)=1.
# (§3) R2 measurements were carried out using an SE sequence with parameters: TE={15, 20, 40, 60, 100, 150, 200, 250, 300 and 500 ms}, TR=5000 ms, slice thickness=3 mm, matrix size=256×128, rBW=±15 kHz and NEX=1.
# (§4) The slopes of R1 and R2 curve versus concentration were used to determine the relaxivity (r1 and r2) in mM^−1 s^−1 as shown in the following tables. A weighted least-linear squares fitting routine was written in MATLAB to calculate the fit parameters accounting for the uncertainty as well as calculating the net uncertainty in the derived measurement. Note that in the final quantitative analysis, R2* measurements are excluded since the samples seemed to have interfering magnetic effects that could alter results.
# [7] = MR relaxation measurements of C4 complex at 3.0 T; format: physicochemical; conditions: 3.0T; for T1 (ms) μ / T2 (ms) μ: 23° C.
# Method: as §1
# Concentrations of the complex were prepared in 0.1%, 0.3%, 0.5%, 0.75% and 1.0% solutions provided by the UH group. Theses solutions were placed in a water bath and imaged at room temperature (23° C.). Experiments were performed to ascertain the spin-lattice relaxivity (R1), spin-spin relaxivity (R2) and true spin-spin relaxivity (R2*) at 1.5 T and 3 T using a volume knee coil to excite and receive the MR signal.
# as §2, §3, §4
# [8] = Characterization of the C4 complex at 7 T; format: physicochemical; parameters: T2 / T1 / T2* / T2*-2: unit not given here; conditions: for T2*-2: second T2* measurement
# Method: […] Characteristic T1, T2, and T2* relaxation times of the preparations were measured at each concentration. T1 measurements were made using a fast spin-echo saturation-recovery sequence (TE=63 ms; TR=400 ms, 500 ms, 1000 ms, 1500 ms, 2500 ms, 500 ms; FOV=3.2 cm×3.2 cm; matrix=64×64; echo train length=12; slice thickness=1 mm). T2 measurements were made using a CPMG multi-spin-echo sequence (TE=n×15 ms, 1≦n≦24; TR=1100 ms). T2* measurements were made using a multi-gradient echo sequence (TE=1.5 ms+n×[…], 0≦n≦15; TR=500 ms, 4000 ms). The image matrix and slice prescription for all measurements were kept constant. The characteristic T1, T2, and T2* relaxation time constants of each compartment were measured using Paravision 4.0, and the relaxivities of the contrast agent were estimated by fitting measured data to the Solomon-Bloembergen-Morgan model using Matlab.
# [9] = Temporal stability of R1 of the cobalt complex; format: physicochemical; conditions: taken 54 days apart
# [10] = T1 relaxivity of Gd-chelated polymeric contrast agent at 1.5 T; format: physicochemical
# Description: A Gd-chelated polymeric MRI contrast agent 20 (Gd Hydrogel) based on a biodegradable, biocompatible poly(L-glutamic acid) (L-PG) backbone was also synthesized and characterized. […] “Blooming” occurs with MR imaging when the contrast agent 20 is encapsulated by titanium and cannot be visualized due to the susceptibility artifacts
# To characterize the contrast agents 20, they were filtrated and injected into the glass capillary tube with 4 mm in length and OD=0.8 mm, ID=0.5 mm with volume of 0.5-1 μL. Water-proton relaxivities were measured at variable temperature (278-335 K), and as a function of magnetic field (1.5 T, 3 T, 4.7 T, and 7 T). Slight differences between the relaxivities of these agents at different field strengths will require slightly different concentrations for optimal visibility at these field strengths. By pH dependency of the proton relaxivities we will evaluate the synthesized CAM for pH-responsive MRI contrast agent 20 applications. Although 4.7 T is not a field strength commonly associated with clinical MRI, it complements the data collected at more clinically relevant field strengths and helps to identify trends in agent relaxivity.
# [11] = cited from earlier work
# [12] = 1.5 T (23° C.), De Bazelaire 2004
molecule,measurement,setting,value
(CoCl2)n(C2H5NO2)1-n [Example C4],"Partition Coefficient, Log P",[1]; contrast agent solution 0.5 %,(−0.15) −
same,"Partition Coefficient, Log P",[1]; contrast agent solution 5 %,(−0.09)
same,pH,[2]; contrast agent solution 0.5 %,6.1
same,pH,[2]; contrast agent solution 5 %,3.2
same,Viscosity,[3]; contrast agent solution 0.5 %,1.0 cP
same,Viscosity,[3]; contrast agent solution 5 %,1.1 cP
same,Surface tension,[4]; contrast agent solution 0.5 %,72.8 dynes/cm
same,Surface tension,[4]; contrast agent solution 5 %,73.6 dynes/cm
same,Magnetic properties,[5]; contrast agent solution 0.5 %,paramagnetic
same,Magnetic properties,[5]; contrast agent solution 5 %,paramagnetic
same,T1 relaxation time,[6]; 0.1%-8.25 mM,782 ms
same,relaxivity r1,[6]; 1.5 T,0.086 ± 0.006 mM/s
same,"relaxivity r1, Slope μ",[6]; 1.5 T,0.086 mM⁻¹ s⁻¹
same,relaxivity r2,[6]; 1.5 T,0.097 ± 0.010 mM/s
same,T1 (ms) μ,"[6]; 0.10 % Wt, 8.25 mM",782.0 ms
same,T2 (ms) μ,"[6]; 0.10 % Wt, 8.25 mM",836.0 ms
same,T1 (ms) μ,"[6]; 0.30 % Wt, 24.76 mM",379.0 ms
same,T2 (ms) μ,"[6]; 0.30 % Wt, 24.76 mM",354.0 ms
same,T1 (ms) μ,"[6]; 0.50 % Wt, 41.27 mM",235.0 ms
same,T2 (ms) μ,"[6]; 0.50 % Wt, 41.27 mM",215.0 ms
same,T1 (ms) μ,"[6]; 0.75 % Wt, 61.90 mM",172.0 ms
same,T2 (ms) μ,"[6]; 0.75 % Wt, 61.90 mM",153.0 ms
same,T1 (ms) μ,"[6]; 1.00 % Wt, 82.53 mM",130.0 ms
same,T2 (ms) μ,"[6]; 1.00 % Wt, 82.53 mM",120.0 ms
same,T1 relaxation time,[6]; 10%-825 mM,61 ms
same,"relaxivity r1, Slope μ",[7],0.070 mM⁻¹ s⁻¹
same,T1 (ms) μ,"[7]; 0.10 % Wt, 8.25 mM",866.0 ms
same,T2 (ms) μ,"[7]; 0.10 % Wt, 8.25 mM",530.0 ms
same,T1 (ms) μ,"[7]; 0.30 % Wt, 24.76 mM",432.0 ms
same,T2 (ms) μ,"[7]; 0.30 % Wt, 24.76 mM",215.0 ms
same,T1 (ms) μ,"[7]; 0.50 % Wt, 41.27 mM",288.0 ms
same,T2 (ms) μ,"[7]; 0.50 % Wt, 41.27 mM",124.0 ms
same,T1 (ms) μ,"[7]; 0.75 % Wt, 61.90 mM",202.0 ms
same,T2 (ms) μ,"[7]; 0.75 % Wt, 61.90 mM",104.0 ms
same,T1 (ms) μ,"[7]; 1.00 % Wt, 82.53 mM",164.0 ms
same,T2 (ms) μ,"[7]; 1.00 % Wt, 82.53 mM",105.0 ms
same,R1 (T1 relaxivity estimate),[8],R1 = 0.0979
same,T1 relaxivity,[8],0.0979 mM/s
same,T2* relaxivity,[8],~0.618 mM/s
same,T2 relaxivity,[8],0.502 mM/s
same,T1,[8]; 8.25 mM,980.805
same,T2,[8]; 8.25 mM,74.85
same,T2*,[8]; 8.25 mM,141.415
same,T2*-2,[8]; 8.25 mM,146.68
same,T1,[8]; 24.76 mM,524.66
same,T2,[8]; 24.76 mM,45.175
same,T2*,[8]; 24.76 mM,50.42
same,T2*-2,[8]; 24.76 mM,52.755
same,T1,[8]; 41.27 mM,533.955
same,T2,[8]; 41.27 mM,31.14
same,T2*,[8]; 41.27 mM,32.37
same,T2*-2,[8]; 41.27 mM,34.135
same,T1,[8]; 61.9 mM,160.45
same,T2,[8]; 61.9 mM,22.96
same,T2*,[8]; 61.9 mM,24.85
same,T2*-2,[8]; 61.9 mM,25.55
same,T1,[8]; 82.53 mM,116.5
same,T2,[8]; 82.53 mM,20.84
same,T2*,[8]; 82.53 mM,17.99
same,T2*-2,[8]; 82.53 mM,17.64
same,degradation or breakdown over time: difference between two R1 measurements,[9],no statistically significant difference was observed
L-PG-Bz-DTPA-Gd,T1 relaxivity,[10],25 mM⁻¹ s⁻¹
same,"T1 relaxivity, times greater than that of Gd-DTPA",[10],more than 6 times
CNC[C@H](O)[C@@H](O)[C@H](O)[C@H](O)CO.CNC[C@H](O)[C@@H](O)[C@H](O)[C@H](O)CO.O=C([O-])CN(CCN(CC(=O)[O-])CC(=O)O)CCN(CC(=O)[O-])CC(=O)O.[Gd+3] [Magnevist],r2/r1,[11]; [12],1.12±0.01
same,relaxivity r1,[11]; [12],4.68 ± 0.06 mM/s
same,relaxivity r2,[11]; [12],5.57 ± 0.07 mM/s
same,relaxivity,"[11]; 1.5 T in phosphate-buffered saline, Unger 1999",4.1 mM⁻¹ s⁻¹
same,T1 relaxivity,"[11]; 7 T, for reference",approximately 5.3 (mM·s)^−1
